In patent publication US20230322776A1, “NEW ARYL-PYRIDO-PYRIMIDIN-ONE DERIVATIVES” (Hoffmann-La Roche Inc., priority 2020, published 2023):

How the values were obtained:
[1] = system: A375 cells (V600E mutated BRAF), ERK phospho-T202/Y204; assay: HTRF assay for P-ERK determination in A375 cells (BRAF inhibition); format: cell-based; conditions: Homo sapiens, A-375, 1 hour drug incubation, DMSO = 100%, 10 μM Dabrafenib = 0%, top concentration 10 μM, read-out: P-ERK_A375: IC50
From the text: (§1) A375 is a cellular cancer model expressing V600E mutated BRAF and HCT116 a cellular cancer model expressing WT BRAF. First generation BRAF inhibitors such as e.g. dabrafenib induce a paradox effect on tumour cells in that they inhibit the growth of V600E mutated BRAF cells (such as e.g. A375), while they activate growth in WT BRAF cells (such as e.g. HCT 116). ERK 1,2 phosphorylation (terminal member of the phosphorylation cascade of the MAPK pathway) is hereafter reported as main readout for the activation status of the MAPK pathway. DMEM no-phenol red medium supplemented with L-glutamine was purchased from (Thermo Fisher Scientific). Fetal bovine serum (FBS) was purchased from VWR. Advanced ERK phospho-T202/Y204 kit—10,000 tests was purchased from Cisbio cat #64AERPEH. A375 (catalog #CRL-1619) and HCT116 (catalog #CCL-247) cells were originally obtained from American type Culture Collection (ATCC) and banked by the Roche repository. 384-Well microplates ultized were purchased from Greiner Bio-One, 384-well, (With Lid, HiBase, Low volume cat 784-080).
(§2) HTRF Assay for P-ERK Determination in A375 or HCT116 Cells
(§3) Prior to the assay, A375 and HCT116 cell lines are maintained in DMEM no-phenol red medium supplemented with 10% fetal bovine serum (FBS). Following compound treatment, P-ERK levels are determined by measuring FRET fluorescence signal induced by selective binding of two antibodies provided in the mentioned kit (Cisbio cat #64AERPEH) on ERK protein when phosphorylated at Thr202/Tyr204. Briefly, 8000 cells/well in 12 μl media/well are plated in the 384-well plate and left overnight in the incubator (at 37° C. with 5% CO2-humidified atmosphere), the following day the plate is treated in duplicate with test compounds, dabrafenib and PLX8394 (the latter two as controls) at the following final drug concentrations: 10 μM, 3 μM, 1 μM, 0.3 μM, 0.1 μM, 0.03 μM, 0.01 μM, 0.003 μM and 0.001 μM. All wells are subjected to DMSO normalization and drug incubation occurs for 1 hour. Then, 4 μl of a 4× lysis buffer supplied with the kit are added to the wells, the plate is then centrifuged for 30 second (3000 rpm) and incubated on a plate shaker for 1 h at rt.
(§4) At the end of the incubation 4 μl/well of advanced P-ERK antibody solution (prepared according to manufacturer's instruction) followed by 4 μl/well of criptate P-ERK antibody solution (prepared according to manufacturer's instruction) (Cisbio cat #64AERPEH) are added to test wells.
(§5) In order to allow proper data normalization, control wells non drug treated reported in the following table are always included in each plate (according to manufacturer's instruction):
(§6) The plate is then centrifuged at 3000 rpm for 30 seconds, sealed to prevent evaporation and incubated overnight in the dark at room temperature. The plate is then analyzed and fluorescence emission value collected through a Pherastast FSX (BMG Labtech) apparatus at […]. The obtained fluorescence values are processed according to the formula Ratio=[…]*10000 then the average of the ratio on the blank is subtracted to all values.
Data are normalized in the case of A375 cells (BRAF inhibition) considering the average of the ratio (blank subtracted) derived by DMSO only treated cells as 100% and by considering the average of the ratio (blank subtracted) derived by 10 μM Dabrafenib treated cells as 0%. Mean of the normalized points are fitted with sigmoidal curve and IC50 values are determined.

[2] = system: HCT116 cells (WT BRAF), ERK phospho-T202/Y204; assay: HTRF assay for P-ERK determination in HCT116 cells (BRAF activation, paradox); format: cell-based; conditions: for EC50: Homo sapiens, HCT-116, HCT116 cells, 1 hour drug incubation, activation relative to maximum Dabrafenib-mediated activation (100%), top concentration 10 μM, read-out: P-ERK_HCT-116: EC50—50PCT; for Fold Selectivity HCT-116 EC50-50/ A375: ratio of P-ERK HCT-116 EC50-50PCT to P-ERK A375 IC50
From the text: as §1, §2, §3, §4, §5, §6
Data are normalized in the case of HCT116 cells (BRAF activation) considering the average of the ratio (blank subtracted) derived by DMSO only treated cells as 0% and by considering the average of the ratio (blank subtracted) derived by Dabrafenib treated cells at the concentration which provides the highest signal as 100%. Individual points are fitted with either sigmoidal or bell shape curves, the percentage of activation compared to maximum Dabrafenib-mediated activation is determined.

BRAF = BRAF (Homo sapiens, UniProt P15056); assay: KD BRAF (Table 1; no method described); format: binding
Chain of BRAF (P15056 whole entry): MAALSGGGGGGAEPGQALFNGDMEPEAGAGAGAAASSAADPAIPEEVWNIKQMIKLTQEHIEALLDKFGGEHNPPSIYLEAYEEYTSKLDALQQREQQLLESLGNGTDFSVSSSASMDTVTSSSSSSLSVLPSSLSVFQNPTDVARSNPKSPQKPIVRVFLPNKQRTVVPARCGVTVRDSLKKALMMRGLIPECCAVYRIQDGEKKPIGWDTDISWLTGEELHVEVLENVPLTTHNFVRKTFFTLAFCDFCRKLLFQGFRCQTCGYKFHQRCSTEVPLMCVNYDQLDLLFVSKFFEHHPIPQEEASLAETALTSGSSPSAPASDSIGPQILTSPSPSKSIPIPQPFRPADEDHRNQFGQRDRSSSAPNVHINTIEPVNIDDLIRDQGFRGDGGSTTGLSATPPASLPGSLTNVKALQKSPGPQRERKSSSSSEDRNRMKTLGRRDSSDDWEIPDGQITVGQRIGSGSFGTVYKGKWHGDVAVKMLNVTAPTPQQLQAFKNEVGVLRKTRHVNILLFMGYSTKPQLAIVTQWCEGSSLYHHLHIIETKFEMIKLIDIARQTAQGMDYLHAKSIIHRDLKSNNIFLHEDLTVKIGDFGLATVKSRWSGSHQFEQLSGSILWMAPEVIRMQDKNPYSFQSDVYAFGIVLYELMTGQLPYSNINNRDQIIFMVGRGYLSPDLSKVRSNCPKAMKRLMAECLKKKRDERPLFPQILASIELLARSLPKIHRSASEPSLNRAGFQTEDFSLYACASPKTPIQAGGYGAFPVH

BRAF V660E = BRAF V660E (Homo sapiens, UniProt P15056, V600E); assay: KD BRAF V660E (Table 1; no method described); format: binding
Chain of BRAF V660E (P15056 2-766 V600E): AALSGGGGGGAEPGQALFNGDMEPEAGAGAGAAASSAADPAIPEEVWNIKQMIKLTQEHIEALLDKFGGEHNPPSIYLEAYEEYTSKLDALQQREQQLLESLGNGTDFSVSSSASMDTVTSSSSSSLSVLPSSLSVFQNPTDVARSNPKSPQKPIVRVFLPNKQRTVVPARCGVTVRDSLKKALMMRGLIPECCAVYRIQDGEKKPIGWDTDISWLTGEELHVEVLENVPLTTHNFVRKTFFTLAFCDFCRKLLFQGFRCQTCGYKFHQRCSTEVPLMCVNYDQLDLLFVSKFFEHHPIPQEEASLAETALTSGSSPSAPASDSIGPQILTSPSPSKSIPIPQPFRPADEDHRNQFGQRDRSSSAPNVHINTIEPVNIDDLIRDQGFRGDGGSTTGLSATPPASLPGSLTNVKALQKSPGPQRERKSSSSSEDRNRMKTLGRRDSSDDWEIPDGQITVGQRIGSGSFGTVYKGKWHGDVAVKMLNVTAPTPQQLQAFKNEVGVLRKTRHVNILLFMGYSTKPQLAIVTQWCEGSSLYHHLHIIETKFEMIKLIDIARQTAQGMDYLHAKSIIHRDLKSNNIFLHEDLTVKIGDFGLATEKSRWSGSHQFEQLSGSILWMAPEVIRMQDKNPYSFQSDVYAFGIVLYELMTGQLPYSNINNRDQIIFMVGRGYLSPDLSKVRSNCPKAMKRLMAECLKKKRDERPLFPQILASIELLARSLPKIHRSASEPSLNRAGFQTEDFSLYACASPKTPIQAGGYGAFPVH

Row | SMILES | IC50 [1] [nM] | EC50 [2] [nM] | Fold Selectivity HCT-116 EC50-50/ A375 [2] | Kd (BRAF) [nM] | Kd (BRAF V660E) [nM]
1 | Cn1c(=O)c(-c2c(F)ccc(NS(=O)(=O)N3CC[C@@H](F)C3)c2F)cc2cnc(NCCCc3ccccc3)nc21 [Example 5, (3R)-N-[2,4-difluoro-3-[8-methyl-7-oxo-2-(3-phenylpropylamino)pyrido[2,3-d]pyrimidin-6-yl]phenyl]-3-fluoropyrrolidine-1-sulfonamide] | 42.6 | 394 | 9.2 | 46.5 | 115
2 | CC(=O)NCc1ccc(CCNc2ncc3cc(-c4c(F)ccc(NS(=O)(=O)N5CC[C@@H](F)C5)c4F)c(=O)n(C)c3n2)cc1 [Example 35, N-[[4-[2-[[6-[2,6-difluoro-3-[[(3R)-3-fluoropyrrolidin-1-yl]sulfonylamino]phenyl]-8-methyl-7-oxopyrido[2,3-d]pyrimidin-2-yl]amino]ethyl]phenyl]methyl]acetamide] | 37.3 | 1490 | 40.0 | 5.7 | 22.1
3 | CN(C1CC1)S(=O)(=O)Nc1ccc(F)c(-c2cc3cnc(NCC4CC4)nc3n(C)c2=O)c1F [Example 12, 2-(cyclopropylmethylamino)-6-[3-[[cyclopropyl(methyl)sulfamoyl]amino]-2,6-difluorophenyl]-8-methyl-7-oxopyrido[2,3-d]pyrimidine] | 109 | 2220 | 20.4 | 84.9 | 487
4 | CCN(C)S(=O)(=O)Nc1cccc(-c2cc3cnc(NCCC4CCN(C(C)=O)CC4)nc3n(C)c2=O)c1C#N [Example 37, 2-[2-(1-acetylpiperidin-4-yl)ethylamino]-6-[2-cyano-3-[[ethyl(methyl)sulfamoyl]amino]phenyl]-8-methyl-7-oxopyrido[2,3-d]pyrimidine] | 49.5 | 463 | 9.4 | 2.2 | 4
5 | Cn1c(=O)c(-c2c(F)ccc(NS(=O)(=O)N3CC[C@@H](F)C3)c2F)cc2cnc(NC3CCCC3)nc21 [Example 7, (3R)-N-[3-[2-(cyclopentylamino)-8-methyl-7-oxopyrido[2,3-d]pyrimidin-6-yl]-2,4-difluorophenyl]-3-fluoropyrrolidine-1-sulfonamide] | 30.8 | 2170 | 70.5 | 91.2 | 282
6 | CC(=O)NCCOCCOCCNc1ncc2cc(-c3c(F)ccc(NS(=O)(=O)N4CC[C@@H](F)C4)c3F)c(=O)n(C)c2n1 [Example 32, N-[2-[2-[2-[[6-[2,6-difluoro-3-[[(3R)-3-fluoropyrrolidin-1-yl]sulfonylamino]phenyl]-8-methyl-7-oxopyrido[2,3-d]pyrimidin-2-yl]amino]ethoxy]ethoxy]ethyl]acetamide] | 196 | ≥ 10000 | >51.1 | 23.6 | 70
7 | Cn1c(=O)c(-c2c(F)ccc(NS(=O)(=O)N3CC[C@@H](F)C3)c2F)cc2cnc(NCC3CC3)nc21 [Example 10, (3R)-N-[3-[2-(cyclopropylmethylamino)-8-methyl-7-oxopyrido[2,3-d]pyrimidin-6-yl]-2,4-difluorophenyl]-3-fluoropyrrolidine-1-sulfonamide] | 9.9 | 645 | 65.1 | 19 | 37.5
8 | CC(=O)N(C)Cc1cccc(CCNc2ncc3cc(-c4c(F)ccc(NS(=O)(=O)N5CC[C@@H](F)C5)c4F)c(=O)n(C)c3n2)c1 [Example 36, N-[[3-[2-[[6-[2,6-difluoro-3-[[(3R)-3-fluoropyrrolidin-1-yl]sulfonylamino]phenyl]-8-methyl-7-oxopyrido[2,3-d]pyrimidin-2-yl]amino]ethyl]phenyl]methyl]-N-methylacetamide] | 20.5 | 2730 | 133.4 | 8.9 | 17.2
9 | Cl.Cn1c(=O)c(-c2c(F)ccc(NS(=O)(=O)N3CC[C@@H](F)C3)c2F)cc2cnc(NCCOCCN)nc21 [Example 15, (3R)-N-[3-[2-[2-(2-aminoethoxy)ethylamino]-8-methyl-7-oxopyrido[2,3-d]pyrimidin-6-yl]-2,4-difluorophenyl]-3-fluoropyrrolidine-1-sulfonamide hydrochloride] | 617 | ≥ 10000 | 16.2 | 81.7 | 194
10 | CC(=O)N1CCC(CNc2ncc3cc(-c4c(F)ccc(NS(=O)(=O)N5CC[C@@H](F)C5)c4F)c(=O)n(C)c3n2)CC1 [Example 21, (3R)-N-[3-[2-[(1-acetylpiperidin-4-yl)methylamino]-8-methyl-7-oxopyrido[2,3-d]pyrimidin-6-yl]-2,4-difluorophenyl]-3-fluoropyrrolidine-1-sulfonamide] | 86.7 | ≥ 10000 | >115.3 | 62 | 109
11 | Cn1c(=O)c(-c2c(F)ccc(NS(=O)(=O)C3CCCC3)c2F)cc2cnc(NCCC3CCN(C(=O)OC(C)(C)C)CC3)nc21 [Example 13, tert-butyl 4-[2-[[6-[3-(cyclopentylsulfonylamino)-2,6-difluorophenyl]-8-methyl-7-oxopyrido[2,3-d]pyrimidin-2-yl]amino]ethyl]piperidine-1-carboxylate] | 272 | 9460 | 34.7 | 350 | 440
12 | CCN(C)S(=O)(=O)Nc1ccc(F)c(-c2cc3cnc(NCC4CC4)nc3n(CCOCc3ccccc3)c2=O)c1F [Example 44, 2-(Cyclopropylmethylamino)-6-[3-[[ethyl(methyl)sulfamoyl]amino]-2,6-difluorophenyl]-7-oxo-8-(2-phenylmethoxyethyl)pyrido[2,3-d]pyrimidine] | 1900 | ≥ 10000 | >5.3 | 1380 | 1750
13 | CC(=O)N[C@H]1CC[C@H](Nc2ncc3cc(-c4c(F)ccc(NS(=O)(=O)N5CC[C@@H](F)C5)c4F)c(=O)n(C)c3n2)C1 [Example 24, N-[(1S,3S)-3-[[6-[2,6-difluoro-3-[[(3R)-3-fluoropyrrolidin-1-yl]sulfonylamino]phenyl]-8-methyl-7-oxopyrido[2,3-d]pyrimidin-2-yl]amino]cyclopentyl]acetamide] | 126 | 8870 | 70.7 | 8.2 | 27.5
14 | CC(=O)N1Cc2ccc(CCNc3ncc4cc(-c5c(F)ccc(NS(=O)(=O)N6CC[C@@H](F)C6)c5F)c(=O)n(C)c4n3)cc2C1 [Example 49, (3R)—N-[3-[2-[2-(2-Acetyl-1,3-dihydroisoindol-5-yl)ethylamino]-8-methyl-7-oxopyrido[2,3-d]pyrimidin-6-yl]-2,4-difluorophenyl]-3-fluoropyrrolidine-1-sulfonamide] | 8.4 | 989 | 117.8 | 2.5 | 6.5
